Experimental data reported in US6413946B1, “Composition for treatment of diabetes and treatment of diabetes” (Meiji Seika Kaisha, Ltd., priority 1997, dated 2002).
Entries after “also recorded” stand apart in the source; their conditions may differ.

Legend:
[1] = tested on: STZ diabetic rats; test: Biochemical tests of blood of STZ diabetic rats (Example 2); assay type: in vivo, Wistar rats; conditions: 320 mg/kg oral twice a day for 5 consecutive days
Method: To male Wistar 7-week-old rats (7 rats per group), which were intravenously administered with a single dose of 60 mg/kg of STZ and which were confirmed to have been made diabetic after the lapse of 1 week from the STZ administration, fosfomycin disodium salt or fosfomycin calcium salt (FOM-Ca) was orally administered at a dose of 320 mg/kg, twice a day for 5 consecutive days. Then, sample of the blood of each test rat was taken and subjected to the biochemical tests.

[2] = tested on: rats; test: Toxicity in rats at oral administration; assay type: in vivo
[3] = tested on: STZ diabetic rats; test: General observation of body conditions of STZ diabetic rats (Example 1); assay type: in vivo, Wistar rats; conditions: oral twice a day for 5 consecutive days, VOSO4 50 mg/kg, FOM-Na 160 mg/kg
Method: (§1) In this Example, as animals to be tested, the STZ diabetic rats were prepared from normal Wistar rats having an average body weight of 250 g (male, 6 weeks of age). For this purpose, the normal Wistar rats were made diabetic by a single administration of a dose of 60 mg/kg of STZ intravenously. The normal Wistar rats (male) which are to be subjected to the STZ administration, when they were given 20 g/day of feed and 36 g/day of water, had have such body conditions that average values each of their urine volume output, serum glucose level, serum urea nitrogen level, serum creatinine level, serum total protein level and serum albumin level of the rats are amounting to 18 ml, 152 mg/dl, 18.0 mg/dl, 0.5 mg/dl, 5.63 g/dl and 4.2 g/dl, respectively.
(§2) The STZ diabetic rats as prepared and used in this Example are such those rats (7 weeks of age, 6 rats per group) which had received an intravenous administration of a single dose of 60 mg/kg of STZ and which were confirmed to have been made diabetic with their showing such symptom that their serum glucose level was not less than 400 (mg/dl), when measured by sampling their blood at 1 week lapse from the STZ administration.
(§3) One week after the intravenous administration of single dose 60 mg/kg of STZ, to the male 7-week-old Wistar rats (6 rats per group), which have been confirmed to have the symptoms of diabetes, were orally administered either one or both of vanadyl sulfate VOSO4 at a single dose of 50 mg/kg and fosfomycin disodium salt (abbreviated as FOM-Na) at a single dose of 160 mg/kg, twice a day for 5 consecutive days, by administration of the test compound(s) in the form of the aqueous solutions. The body weight, amounts (volumes) of feed taken, water taken and urine volume output of the rats under test were measured with lapse of time. Further, sampling of blood from the rats was effected at a time of 24 hours after the final administration of the compound(s) tested. Samplings of the urine from the rats were effected over 12 hours after the final administration of the compound(s) tested, and the blood sample and the urine samples as collected were subjected to the following biochemical tests.
(§4) In the biological tests of the blood sample above-mentioned, there were measured the serum glucose level, serum urea nitrogen level, serum creatinine level, serum total protein level and serum albumin level. In the biochemical tests of the urine sample, there were measured the collected amounts of the glucose, total protein and creatinine present in the urine. […] These rats for the comparative purpose were tested similarly to the above tests.

[4] = tested on: STZ diabetic rats; test: Biochemical test of urine sample of STZ diabetic rats (Example 1); assay type: in vivo, Wistar rats; conditions: oral twice a day for 5 consecutive days, VOSO4 50 mg/kg, FOM-Na 160 mg/kg
Method: as §1, §2, §3, §4

[5] = tested on: STZ diabetic rats; test: Biochemical tests of serum (blood) sample of STZ diabetic rats (Example 1); assay type: in vivo, Wistar rats; conditions: oral twice a day for 5 consecutive days, fosfomycin disodium salt 160 mg/kg, vanadyl sulfate 50 mg/kg, alone or combined
Method: In this Example, as animals to be tested, the STZ diabetic rats were prepared from normal Wistar rats having an average body weight of 250 g (male, 6 weeks of age). For this purpose, the normal Wistar rats were made diabetic by a single administration of a dose of 60 mg/kg of STZ intravenously. […]
as §2
One week after the intravenous administration of single dose 60 mg/kg of STZ, to the male 7-week-old Wistar rats (6 rats per group), which have been confirmed to have the symptoms of diabetes, were orally administered either one or both of vanadyl sulfate VOSO4 at a single dose of 50 mg/kg and fosfomycin disodium salt (abbreviated as FOM-Na) at a single dose of 160 mg/kg, twice a day for 5 consecutive days, by administration of the test compound(s) in the form of the aqueous solutions. The body weight, amounts (volumes) of feed taken, water taken and urine volume output of the rats under test were measured with lapse of time. […]

[6] = tested on: Na,K-ATPase; conditions: cited from earlier work
[7] = tested on: STZ diabatic rats; conditions: aqueous saline solution as drinking water; 6th week after the administration; cited from earlier work

## C[C@@H]1O[C@@H]1P(=O)([O-])[O-].[Ca+2] [FOM-Ca, fosfomycin calcium salt]
[1]; listed as calcium salt, calcium salt
  Effect on serum glucose level / symptoms of diabetes (in words): evidently ameliorate an unusually high serum glucose level
[1]; listed as fosfomycin calcium salt, calcium salt
  Effect on serum glucose level / symptoms of diabetes (in words): clearly ameliorate
[1]; Day 0
  Blood Glucose: 431 ± 5 mg/dL
  Blood Triglyceride: 178 ± 18 mg/d1
[1]; Day 5
  Blood Albumin: 4.1 ± 0.1 g/dL
  Blood Creatinine: 0.51 ± 0.01 mg/dL
  Blood Glucose: 336 ± 23 mg/dL
  Blood Total protein: 5.37 ± 0.07 g/dL
  Blood Triglyceride: 59 ± 7 mg/d1
[2]; oral administration
  LD50: ≥ 3500 mg/kg

## C[C@@H]1O[C@@H]1P(=O)([O-])[O-].[Na+].[Na+] [FOM-Na, fosfomycin disodium salt]
[3]; Day 0
  Body weight: 235 ± 4 g
  Feed volume taken: 36 ± 1 g
  Urine volume output: 115 ± 5 mL
  Water volume taken: 153 ± 5 g
[3]; Day 5
  Body weight: 282 ± 3 g
  Feed volume taken: 37 ± 1 g
  Urine volume output: 106 ± 7 mL
  Water volume taken: 142 ± 16 g
[4]; Day 0
  Urine Creatinine: 12.5 ± 0.7 mg/12 hr
  Urine Glucose: 9.2 ± 0.9 g/12 hr
  Urine Total protein: 4.2 ± 1.1 g/12 hr
[4]; Day 5
  Urine Creatinine: 12.5 ± 0.8 mg/12 hr
  Urine Glucose: 8.9 ± 1.3 g/12 hr
  Urine Total protein: 5.6 ± 2.2 g/12 hr
[5]; disodium salt
  Effect on serum glucose level (in words): tendency to improve the serum glucose level; also recorded: action of lowering an unusually high serum glucose level
[1]; disodium salt
  Effect on serum glucose level / symptoms of diabetes (in words): evidently ameliorate an unusually high serum glucose level; also recorded: clearly ameliorate
[1]; Day 0
  Blood Glucose: 432 ± 6 mg/dL
  Blood Triglyceride: 211 ± 30 mg/d1
[1]; Day 5
  Blood Albumin: 4.0 ± 0.1 g/dL
  Blood Creatinine: 0.50 ± 0.00 mg/dL
  Blood Glucose: 345 ± 23 mg/dL
  Blood Total protein: 5.26 ± 0.06 g/dL
  Blood Triglyceride: 65 ± 3 mg/d1

## O=S(=O)([O-])[O-].[O]=[V+2] [VOSO4, vanadyl sulfate]
[3]; Day 0
  Body weight: 226 ± 8 g
  Feed volume taken: 35 ± 2 g
  Urine volume output: 111 ± 10 mL
  Water volume taken: 140 ± 12 g
[3]; Day 5
  Body weight: 239 ± 9 g
  Feed volume taken: 29 ± 4 g
  Urine volume output: 82 ± 21 mL
  Water volume taken: 99 ± 24 g
[4]; Day 0
  Urine Creatinine: 12.5 ± 1.8 mg/12 hr
  Urine Glucose: 9.1 ± 1.4 g/12 hr
  Urine Total protein: 7.2 ± 8.2 g/12 hr
[4]; Day 5
  Urine Creatinine: 12.1 ± 2.5 mg/12 hr
  Urine Glucose: 6.8 ± 3.2 g/12 hr
  Urine Total protein: 3.9 ± 0.8 g/12 hr
[5]
  Effect on serum glucose level (in words): action of lowering an unusually high serum glucose level
[2]; oral administration of 50 mg/kg
  Toxicity (in words): no toxicity

## C[C@@H]1O[C@@H](O[C@H]2C[C@@H](O)[C@]3(CO)[C@H]4[C@H](O)C[C@]5(C)[C@@H](C6=CC(=O)OC6)CC[C@]5(O)[C@@H]4CC[C@]3(O)C2)[C@H](O)[C@H](O)[C@H]1O [ouabain]
[6]
  Inhibition of Na,K-ATPase (in words): strong inhibitor

## [Na+].[Na+].[Na+].[O]=[V]([O-])([O-])[O-] [sodium orthovanadate]
[6]
  Inhibition of Na,K-ATPase (in words): strongly inhibit

## sodium metavanadate
[7]
  Serum glucose level (in words): returned to the normal level
